Assay results reported in ChEMBL document CHEMBL1126326, “Novel antagonists of the 5-HT3 receptor. Synthesis and structure-activity relationships of (2-alkoxybenzoyl)ureas” (J Med Chem, 1992).

The compounds below were run against T1, Serotonin 3 (5-HT3) receptor (Rattus norvegicus, UniProt P35563+Q9JJ16) (assay: In vitro antagonism of the 5-HT-3 receptor determined by inhibition of 5-HT-induced depolarization of the isolated rat vagus nerve.). Conditions: read-out: pA2 (converted).
T1 sequence (P35563 whole entry): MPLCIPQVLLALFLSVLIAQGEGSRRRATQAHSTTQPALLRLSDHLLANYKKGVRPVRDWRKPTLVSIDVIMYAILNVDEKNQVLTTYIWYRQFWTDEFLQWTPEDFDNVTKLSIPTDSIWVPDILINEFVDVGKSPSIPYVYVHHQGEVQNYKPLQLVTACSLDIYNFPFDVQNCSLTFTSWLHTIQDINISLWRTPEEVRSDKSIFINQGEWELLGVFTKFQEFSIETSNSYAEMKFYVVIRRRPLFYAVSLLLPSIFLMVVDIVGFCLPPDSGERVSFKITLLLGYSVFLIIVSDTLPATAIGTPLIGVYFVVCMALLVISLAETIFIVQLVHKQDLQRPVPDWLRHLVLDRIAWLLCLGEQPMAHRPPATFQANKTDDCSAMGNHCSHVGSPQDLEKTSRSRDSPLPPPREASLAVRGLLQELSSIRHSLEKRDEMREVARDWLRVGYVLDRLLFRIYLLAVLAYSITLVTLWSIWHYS
T1 sequence (Q9JJ16 whole entry): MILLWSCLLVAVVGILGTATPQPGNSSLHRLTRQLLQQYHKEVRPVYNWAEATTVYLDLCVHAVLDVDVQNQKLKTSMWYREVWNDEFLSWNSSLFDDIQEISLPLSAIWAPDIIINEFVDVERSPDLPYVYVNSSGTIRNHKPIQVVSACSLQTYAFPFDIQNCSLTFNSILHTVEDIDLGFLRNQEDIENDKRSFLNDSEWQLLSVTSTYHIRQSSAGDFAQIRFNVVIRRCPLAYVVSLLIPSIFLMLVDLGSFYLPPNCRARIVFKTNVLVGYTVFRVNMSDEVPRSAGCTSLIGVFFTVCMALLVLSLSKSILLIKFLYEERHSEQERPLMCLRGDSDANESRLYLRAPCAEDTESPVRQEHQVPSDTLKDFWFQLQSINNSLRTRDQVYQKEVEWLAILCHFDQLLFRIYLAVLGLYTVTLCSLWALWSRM
Assay type: functional

Compound	Kb [µM]
COc1ccccc1C(=O)NC(=O)N[C@H]1CN2CCC1CC2	0.00708
COc1cc([N+](=O)[O-])ccc1C(=O)NC(=O)NC1CC2CCC(C1)N2C (centres undefined)	> 0.1
COc1ccccc1C(=O)NC(=O)NC1CC2CCC(C1)N2C (centres undefined) [listing 1 of 2 here]	0.00251
O=C(NC(=O)c1ccccc1F)NC1CN2CCC1CC2 (centres undefined)	> 0.316
COc1ccccc1C(=O)NC(=O)NC1CC2CCCC(C1)N2C (centres undefined)	0.0398
COc1cc(N)c(Cl)cc1C(=O)NC(=O)NC1CC2CCC(C1)N2C (centres undefined)	0.0794
CCOc1ccccc1C(=O)NC(=O)NC1CC2CCC(C1)N2C (centres undefined)	0.00204
COc1cccc(OC)c1C(=O)NC(=O)NC1CN2CCC1CC2 (centres undefined)	> 0.316
COc1cc(N)ccc1C(=O)NC(=O)NC1CC2CCC(C1)N2C (centres undefined)	0.158
CN1[C@@H]2CC[C@H]1C[C@@H](OC(=O)c1cc(Cl)cc(Cl)c1)C2 [BEMESETRON]	0.0158
CCCCCOc1ccccc1C(=O)NC(=O)NC1CC2CCC(C1)N2C (centres undefined)	0.0316
CN1CCC(OC(=O)NC(=O)c2cc(Cl)cc(Cl)c2)CC1	0.126
Cc1ccccc1C(=O)NC(=O)NC1CN2CCC1CC2 (centres undefined)	0.251
CC(C)Oc1ccccc1C(=O)NC(=O)NC1CC2CCC(C1)N2C (centres undefined)	0.000631
O=C(NC(=O)c1cc(Cl)cc(Cl)c1)NC1CN2CCC1CC2 (centres undefined)	0.2
COc1ccc(C(=O)NC(=O)NC2CN3CCC2CC3)cc1 (centres undefined)	> 0.316
CN1C2CCC1CC(NC(=O)NC(=O)c1ccccc1OCC1CC1)C2 (centres undefined)	0.00126
COc1ccccc1C(=O)NC(=O)OC1CN2CCC1CC2 (centres undefined)	0.0363
COc1cc(N)c(Cl)cc1C(=O)NC1CN2CCC1CC2 (centres undefined) [ZACOPRIDE]	0.000794
COc1ccccc1C(=O)NC(=O)NC1CN2CCC1CC2 (centres undefined)	0.01
CCCCOc1ccccc1C(=O)NC(=O)NC1CC2CCC(C1)N2C (centres undefined)	0.002
CCCOc1ccccc1C(=O)NC(=O)NC1CC2CCC(C1)N2C (centres undefined)	0.00126
CC(C)CCOc1ccccc1C(=O)NC(=O)NC1CC2CCC(C1)N2C (centres undefined)	0.00631
COc1ccccc1C(=O)NC(=O)OC1CC2CCC(C1)N2C (centres undefined)	0.017
CN1C2CCC1CC(NC(=O)NC(=O)c1ccccc1O)C2 (centres undefined)	0.0126
COc1ccccc1C(=O)NC(=O)NC1CC2CCC(C1)N2C (centres undefined) [listing 2 of 2 here]	> 0.0316
COc1ccccc1C(=O)NC(=O)N[C@@H]1CN2CCC1CC2	0.0562
CC(C)COc1ccccc1C(=O)NC(=O)NC1CC2CCC(C1)N2C (centres undefined)	0.00316
COc1ccc(Cl)cc1C(=O)NC(=O)NC1CC2CCC(C1)N2C (centres undefined)	0.0468
